Read-outs that look alike come from different tables or passages of the source.
Experiments:
Escherichia coli = experiment: Single-point BisEDT-antibiotic combination FICI; assay type: cell-based
Bukholderia multivorans = experiment: Single-point BisEDT-antibiotic combination FICI; assay type: cell-based; settings: Bmult 5665
P. aeruginosa = experiment: Checkerboard broth microdilution MIC and FICI; assay type: cell-based, Pseudomonas aeruginosa; settings: compound alone; for MIC: Pseudomonas aeruginosa, read-out: MIC (μg/mL) Alone
Experimental: The effects of combinations of microparticulate Bis-EDT and four Bis-EDT analogs prepared as described above, and other agents against representative strains of several Gram-negative pathogenic bacteria were tested. A modification of a common laboratory method was used to determine synergism (FICI≦0.5), enhancement (0.5<FICI≦1.0), antagonism (FICI>4.0) and indifference (1.0<FICI≦4.0) used fractional inhibitory concentrations (FICs) and FIC indices (FICI) (Eliopoulos G and R Moellering. 1991. Antimicrobial combinations. In Antibiotics in Laboratory Medicine, Third Edition, edited by V Lorian. Williams and Wilkins, Baltimore, Md., pp. 432-492; Odds, 2003 J. Antimicrob. Chemother. 52(1):1). The checkerboard technique was used to determine FIC indices and was employed in this study.
Stock solutions of all test articles were prepared at 40× the final target concentration in the appropriate solvent. […] The final drug concentrations in the FIC assay plates were set to bracket the MIC value of each agent for each test organism, unless the strain was totally resistant to the test agent. […] The test organisms were originally received from clinical sources, or from the American Type Culture Collection. Upon receipt, the isolates were streaked onto Tryptic Soy Agar II (TSA). Colonies were harvested from these plates and a cell suspension was prepared in an appropriate broth growth medium containing cryoprotectant. Aliquots were then frozen at −80° C. The frozen seeds of the organisms to be tested in a given assay were thawed, streaked for isolation onto TSA plates, and incubated at 35° C. All organisms were tested in Mueller Hinton II Broth (Becton Dickinson, Lot No. 9044411). The broth was prepared at 1.05× normal weight/volume to offset the 5% volume of the drugs in the final test plates.
Minimal Inhibitory Concentration (MIC) values were previously determined using the broth microdilution method for aerobic bacteria (Clinical and Laboratory Standards Institute (CLSI). Methods for Dilution Antimicrobial Susceptibility Tests for Bacteria That Grow Aerobically; Approved Standard—Eighth Edition. CLSI document M07-A8 [ISBN 1-56238-689-1]. Clinical and Laboratory Standards Institute, 940 West Valley Road, Suite 1400, Wayne, Pa. 19087-1898 USA, 2009.).
FIC values were determined using a broth microdilution method previously described (Sweeney et al., 2003 Antimicrob. Agents Chemother. 47(6):1902-1906). To prepare the test plates, automated liquid handlers (Multidrop 384, Labsystems, Helsinki, Finland; Biomek 2000 and Multimek 96, Beckman Coulter, Fullerton Calif.) were used to conduct serial dilutions and liquid transfers.
The appropriate wells of standard 96-well microdilution plates (Falcon 3918) were filled with 150 μL of the appropriate solvent in columns 2-12 using the Multidrop 384. Three hundred microliters of each secondary test drug was added to each well in Column 1 of the plates. These plates were used to prepare the drug “mother plates” which provided the serial drug dilutions for the drug combination plates. The Biomek 2000 was used to transfer 150 μL of each secondary drug solution (40×) from the wells in Column 1 of the mother plate and to make eleven 2-fold serial dilutions. Mother plates of Bis-EDT (and analogs) were serial diluted top to bottom by hand, using a multichannel pipette. Two mother plates, one for each secondary drug and one for Bis-EDT (or analogs), were combined to form a “checkerboard” pattern by transfer of equal volumes (using a multi-channel pipette) to the drug combination plate. Row H and Column 12 each contained serial dilutions of one of the agents alone for determination of the MIC.
The “daughter plates” were loaded with 180 μL of test medium using the Multidrop 384. Then, the Multimek 96 was used to transfer 10 μL of drug solution from each well of the drug combination mother plate to each corresponding well of the daughter plate in a single step.

MRSA clinical isolates [1] = experiment: Broth dilution MIC in BHIG/X medium with subMIC BisEDT; assay type: cell-based, Staphylococcus aureus; settings: for MIC: Staphylococcus aureus, MRSA, 12 MRSA clinical isolates, BHIG/X, mean ± SD, read-out: MIC
Experimental: (§1) Broth dilution antimicrobial susceptibility studies were performed against 12 MRSA strains using several antibiotics combined with subMIC levels of BisEDT (Table 18). Both the biofilm-prevention concentration (BPC) and the minimum inhibitory concentration (MIC) were determined in a special biofilm culture medium (BHIG/X). […] These strains were already sensitive to vancomycin, but were made considerably moreso in the presence of subMIC BisEDT.
In this particular study, the data indicated synergy between BisEDT and cefepime (FIC<0.5), with many of the isolates at the breakpoint for sensitivity.

[2] = test system: lawn of MRSA (Methicillin-resistant S. aureus); experiment: Antibiotic-soaked discs on bacterial lawn with and without BisEDT; assay type: cell-based, Staphylococcus aureus; settings: antibiotic discs combined with BisEDT 0.05 μg/ml
Experimental: FIGS. 4A and 4B show the subinhibitory BisEDT reversing antibiotic-resistance to several antibiotics. Effects of antibiotics with and without BisEDT (0.05 μg/ml) on a lawn of MRSA (Methicillin-resistant S. aureus) is shown. […] [GM=gentamicin, CZ=cefazolin, FEP=cefepime, IPM=imipenim, SAM=ampicillin/sulbactam, LVX=levofloxacin.

Acinetobacter baumanii = experiment: Single-point BisEDT-antibiotic combination FICI; assay type: cell-based; settings: Abau 2594
MRSA clinical isolates [3] = settings: cited from earlier work
Klebsiella pneumoniae = experiment: Single-point BisEDT-antibiotic combination FICI; assay type: cell-based; settings: KP 1231
[4] = test system: MRSA clinical isolates biofilm; experiment: Biofilm-prevention concentration (BPC) in BHIG/X medium with subMIC BisEDT; assay type: cell-based, Staphylococcus aureus; settings: 12 MRSA clinical isolates, mean ± SD
Experimental: as §1

Burkholderia cepacia = experiment: Single-point BisEDT-antibiotic combination FICI; assay type: cell-based; settings: Bcep 1756
Pseudomonas aeruginosa = experiment: Single-point BisEDT-antibiotic combination FICI; assay type: cell-based; settings: PA 1380

MIC (μg/mL) Alone (P. aeruginosa; P. aeruginosa 103): 1 µg/mL
MIC (μg/mL) Alone (P. aeruginosa; P. aeruginosa 1479): 8 µg/mL
MIC (μg/mL) Alone (P. aeruginosa; P. aeruginosa 2566): 16 µg/mL
MIC (P. aeruginosa; P. aeruginosa 103): 2 µg/mL
MIC (P. aeruginosa; P. aeruginosa 1381): 32 µg/mL
MIC (P. aeruginosa; P. aeruginosa 1384): 2 µg/mL
MIC (P. aeruginosa; P. aeruginosa 1474): 2 µg/mL
MIC (P. aeruginosa; P. aeruginosa 1479): 4 µg/mL
MIC (P. aeruginosa; P. aeruginosa 2566): 8 µg/mL
MIC (P. aeruginosa; P. aeruginosa 2568): 2 µg/mL
MIC (MRSA clinical isolates [1]; BisEDT 0 μg/mL): 45 ± 32 µg/mL
MIC (MRSA clinical isolates [1]; BisEDT 0.025 μg/mL): 32 ± 28 µg/mL
MIC (MRSA clinical isolates [1]; BisEDT 0.05 μg/mL): 37 ± 24 µg/mL
MIC (MRSA clinical isolates [1]; BisEDT 0.1 μg/mL): 9.3 ± 6.1 µg/mL
SMILES: CO/N=C(\C(=O)N[C@@H]1C(=O)N2C(C(=O)[O-])=C(C[N+]3(C)CCCC3)CS[C@H]12)c1csc(N)n1 [Cefepime]
FICI, single-point BisEDT-antibiotic combination (Escherichia coli; EC 102): 0.87
FICI, single-point BisEDT-antibiotic combination (Escherichia coli; EC 2232): 0.96
FICI, single-point BisEDT-antibiotic combination (Bukholderia multivorans): 0.96
Isolates in which BisEDT significantly enhanced inhibitory activity of cefepime (MRSA clinical isolates [1]; BisEDT at 0.1 μg/ml, 12 cefepime-resistant MRSA): 11 of 12
FIC, BisEDT and cefepime (MRSA clinical isolates [1]; cefepime-resistant MRSA isolates): < 0.5
Antibiotic action on MRSA lawn with subMIC BisEDT [2]: enhanced antibiotic action
FICI, single-point BisEDT-antibiotic combination (Acinetobacter baumanii): 0.71
MIC Standards, R (resistance) (MRSA clinical isolates [3]; Standard MIC breakpoint for resistance): ≧32 μg/ml
MIC Standards, S (antibiotic sensitivity) (MRSA clinical isolates [3]; Standard MIC breakpoint for sensitivity): ≦8 μg/ml
FICI, single-point BisEDT-antibiotic combination (Klebsiella pneumoniae): 1.11
BPC ([4]; BisEDT 0 μg/mL): 24 ± 37 µg/mL
BPC ([4]; BisEDT 0.025 μg/mL): 27 ± 28 µg/mL
BPC ([4]; BisEDT 0.05 μg/mL): 18 ± 16 µg/mL
BPC ([4]; BisEDT 0.1 μg/mL): 5.0 ± 7.3 µg/mL
FICI, single-point BisEDT-antibiotic combination (Burkholderia cepacia): 1.34
FICI, single-point BisEDT-antibiotic combination (Pseudomonas aeruginosa): 0.62

— US9408393B2, “Bismuth-thiols as antiseptics for agricultural, industrial and other uses” (Microbion Corporation, priority 2010, dated 2016)
